Results published in PubChem BioAssay (NCI).
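The compound was tested at five concentrations on cells cultured in 96-well plates, with a 48-hour exposure period. TGI marks complete inhibition of growth.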 Where a SMILES comes first, the peptide text is derived from it. The star is where a group is joined. Fmoc = O=C(OCC1c2ccccc2-c2ccccc21)*; Boc = CC(C)(C)OC(=O)*

How the values were obtained:
Assay in all cases: NCI anticancer screen, dose series, 48 h
UACC-62 melanoma = system: UACC-62 melanoma
SK-MEL-2 melanoma = system: SK-MEL-2 melanoma
MALME-3M melanoma = system: MALME-3M melanoma
NCI/ADR-RES ovarian = system: NCI/ADR-RES ovarian
OVCAR-5 ovarian = system: OVCAR-5 ovarian
SF-539 CNS = system: SF-539 CNS
HOP-62 NSCLC = system: HOP-62 NSCLC
HCT-15 colon = system: HCT-15 colon
RPMI-8226 leukemia = system: RPMI-8226 leukemia
HT29 colon = system: HT29 colon
DU-145 prostate = system: DU-145 prostate
SNB-19 CNS = system: SNB-19 CNS
T-47D breast = system: T-47D breast
EKVX NSCLC = system: EKVX NSCLC

SMILES | TGI (UACC-62 melanoma) | TGI (SK-MEL-2 melanoma) | TGI (MALME-3M melanoma) | TGI (NCI/ADR-RES ovarian) | TGI (OVCAR-5 ovarian) | TGI (SF-539 CNS) | TGI (HOP-62 NSCLC) | TGI (HCT-15 colon) | TGI (RPMI-8226 leukemia) | TGI (HT29 colon) | TGI (DU-145 prostate) | TGI (SNB-19 CNS) | TGI (T-47D breast) | TGI (EKVX NSCLC)
c1ccc2c(c1)CCc1[nH]c3c(c1-2)-c1ccccc1CC3 | > 100 µM | > 100 µM | > 100 µM | > 100 µM | > 100 µM | > 100 µM | 58.5 µM | > 100 µM | > 100 µM | > 100 µM | > 100 µM | > 100 µM | > 100 µM | > 100 µM
CN1CN(c2ccccc2)C2(CCN(CCC3COc4ccccc4O3)CC2)C1=O (centres undefined) | 91.6 µM | – | 38.5 µM | 49.6 µM | 45.9 µM | 38 µM | – | > 100 µM | 42.7 µM | 19.6 µM | > 100 µM | 70.8 µM | 62.3 µM | 51.4 µM
CC(C)(C)OC(=O)NCCCCC(NC(=O)C(Cc1c[nH]c2ccccc12)NC(=O)OCC1c2ccccc2-c2ccccc21)C(=O)N1CCCC1C(=O)NCC(N)=O (centres undefined) (Fmoc-WK(Boc)PG-NH2; configuration not given here) | > 100 µM | > 100 µM | > 100 µM | > 100 µM | > 100 µM | > 100 µM | > 100 µM | > 100 µM | > 100 µM | > 100 µM | > 100 µM | > 100 µM | > 100 µM | > 100 µM
CC(C)(C)c1cc2c(O)c(c1)Cc1cc(C(C)(C)C)cc(c1O)Cc1cc(C(C)(C)C)cc(c1O)Cc1cc(C(C)(C)C)cc(c1O)Cc1cc(C(C)(C)C)cc(c1O)Cc1cc(C(C)(C)C)cc(c1O)Cc1cc(C(C)(C)C)cc(c1O)Cc1cc(C(C)(C)C)cc(c1O)C2 | > 50 µM | > 50 µM | > 50 µM | > 50 µM | > 50 µM | > 50 µM | > 50 µM | > 50 µM | > 50 µM | > 50 µM | > 50 µM | > 50 µM | > 50 µM | > 50 µM
CCOC(=O)C(=O)/C(=C/N1C(=O)CC(=O)NC1=S)C(=O)OCC | > 100 µM | > 100 µM | > 100 µM | > 100 µM | > 100 µM | > 100 µM | > 100 µM | > 100 µM | > 100 µM | > 100 µM | > 100 µM | > 100 µM | > 100 µM | > 100 µM
Fc1ccc(-c2sc(-c3cccs3)cc2Cc2cccs2)cc1 | > 100 µM | > 100 µM | > 100 µM | > 100 µM | > 100 µM | > 100 µM | – | > 100 µM | – | > 100 µM | > 100 µM | > 100 µM | > 100 µM | > 100 µM
COc1cccc(N(CN2C(=O)CCC2C(=O)O)C(C)=O)c1 (centres undefined) | > 100 µM | > 100 µM | > 100 µM | > 100 µM | > 100 µM | > 100 µM | > 100 µM | > 100 µM | > 100 µM | > 100 µM | > 100 µM | > 100 µM | > 100 µM | > 100 µM
CCOC(=O)c1c2c(c(O)c3ccccc3c(O)n(Cc3ccccc3)c1C)C(=O)C=CC2=O | > 100 µM | > 100 µM | > 100 µM | > 100 µM | > 100 µM | > 100 µM | > 100 µM | > 100 µM | > 100 µM | > 100 µM | > 100 µM | > 100 µM | > 100 µM | > 100 µM
CN(c1cn(C2CC[C@@H](CO)O2)c(=O)[nH]c1=O)C1CCCCC1 (some centres undefined) | > 100 µM | – | > 100 µM | > 100 µM | > 100 µM | > 100 µM | > 100 µM | > 100 µM | > 100 µM | > 100 µM | > 100 µM | > 100 µM | > 100 µM | –
CN1CCC2(CC1)C(=NC1CCCCC1)NC(=S)N2c1ccccc1 | > 100 µM | – | > 100 µM | > 100 µM | > 100 µM | > 100 µM | > 100 µM | > 100 µM | > 100 µM | > 100 µM | > 100 µM | > 100 µM | > 100 µM | > 100 µM
COC(=O)C1=C(C)C=C(N2CCOCC2)C(C(=O)OC)C1c1ccccc1 (centres undefined) | – | > 10 µM | > 10 µM | > 10 µM | > 10 µM | > 10 µM | > 10 µM | > 10 µM | > 10 µM | > 10 µM | > 10 µM | > 10 µM | > 10 µM | > 10 µM
Cc1ccc(S(=O)c2sccc2C=O)cc1 (centres undefined) | 55.3 µM | > 100 µM | > 100 µM | 67.2 µM | > 100 µM | 41.7 µM | 68.1 µM | 85.8 µM | 76.2 µM | 45 µM | > 100 µM | > 100 µM | > 100 µM | > 100 µM
O=C1CC(=O)NC(=NNS(=O)(=O)c2ccccc2)N1 | > 100 µM | > 100 µM | > 100 µM | > 100 µM | > 100 µM | > 100 µM | > 100 µM | > 100 µM | > 100 µM | > 100 µM | > 100 µM | > 100 µM | > 100 µM | –
O=C(CNC(c1ccccc1)(c1ccccc1)c1ccccc1)NC1CCCCC1NC(=O)CNC(c1ccccc1)(c1ccccc1)c1ccccc1 (centres undefined) | > 100 µM | > 100 µM | > 100 µM | > 100 µM | > 100 µM | > 100 µM | 91.6 µM | > 100 µM | > 100 µM | > 100 µM | > 100 µM | > 100 µM | > 100 µM | 47.6 µM
OCCOc1ccccc2cccc1-2 | > 100 µM | > 100 µM | > 100 µM | > 100 µM | > 100 µM | > 100 µM | > 100 µM | > 100 µM | > 100 µM | > 100 µM | > 100 µM | > 100 µM | > 100 µM | > 100 µM
CC(=O)OC12c3ccccc3-c3ccccc3C1C1C(=O)OC(=O)C12 (centres undefined) | – | > 10 µM | > 10 µM | > 10 µM | > 10 µM | > 10 µM | > 10 µM | > 10 µM | > 10 µM | > 10 µM | > 10 µM | > 10 µM | > 10 µM | > 10 µM
